What was measured:
[1] = target: recombinant BACE1 protein (Homo sapiens, UniProt P56817); assay: Biochemical FRET based assay; conditions: recombinant BACE1 1 μg/ml, 120 minutes, room temperature, pH 5.0; read-out: Biochemical FRET based assay pIC50 (converted)
Source text: This assay is a Fluorescence Resonance Energy Transfer Assay (FRET) based assay. The substrate for this assay is an APP derived 13 amino acids peptide that contains the ‘Swedish’ Lys-Met/Asn-Leu mutation of the amyloid precursor protein (APP) beta-secretase cleavage site. This substrate also contains two fluorophores: (7-methoxycoumarin-4-yl) acetic acid (Mca) is a fluorescent donor with excitation wavelength at 320 nm and emission at 405 nm and 2,4-Dinitrophenyl (Dnp) is a proprietary quencher acceptor. […] Upon cleavage by BACE1, the fluorophore Mca is separated from the quenching group Dnp, restoring the full fluorescence yield of the donor. The increase in fluorescence is linearly related to the rate of proteolysis.
Briefly in a 384-well format recombinant BACE1 protein in a final concentration of 1 μg/ml is incubated for 120 minutes at room temperature with 10 μm substrate in incubation buffer (40 mM Citrate buffer pH 5.0, 0.04% PEG, 4% DMSO) in the absence or presence of compound. Next the amount of proteolysis is directly measured by fluorescence measurement at T=0 and T=120 (excitation at 320 nm and emission at 405 nm). Results are expressed in RFU (Relative Fluorescence Units), as difference between T120 and T0.
From this an IC50 value (inhibitory concentration causing 50% inhibition of activity) can be obtained.

[2] = tested on: Abeta 1-42 produced and secreted by human neuroblastoma SKNBE2 cells expressing hAPP695; assay: Cellular αLisa assay in SKNBE2 cells, Abeta 42; assay type: cell-based; conditions: incubated for 18 hours, read-out: Cellular αLisa assay in SKNBE2 cells Abeta 42 pIC50 (converted)
Protocol: (§1) In two αLisa assays the levels of Abeta total and Abeta 1-42 produced and secreted into the medium of human neuroblastoma SKNBE2 cells are quantified. The assay is based on the human neuroblastoma SKNBE2 expressing the wild type Amyloid Precursor Protein (hAPP695). The compounds are diluted and added to these cells, incubated for 18 hours and then measurements of Abeta 1-42 and Abeta total are taken. Abeta total and Abeta 1-42 are measured by sandwich αLisa. αLisa is a sandwich assay using biotinylated antibody AbN/25 attached to streptavidin coated beads and antibody Ab4G8 or cAb42/26 conjugated acceptor beads for the detection of Abeta total and Abeta 1-42 respectively. In the presence of Abeta total or Abeta 1-42, the beads come into close proximity. The excitation of the donor beads provokes the release of singlet oxygen molecules that trigger a cascade of energy transfer in the acceptor beads, resulting in light emission. Light emission is measured after 1 hour incubation (excitation at […] and emission at 615 nm).
(§2) A best-fit curve is fitted by a minimum sum of squares method to the plot of % Controlmin versus compound concentration. From this an IC50 value (inhibitory concentration causing 50% inhibition of activity) can be obtained.

[3] = tested on: Abeta total produced and secreted by human neuroblastoma SKNBE2 cells expressing hAPP695; assay: Cellular αLisa assay in SKNBE2 cells, Abeta total; assay type: cell-based; conditions: incubated for 18 hours, read-out: Cellular αLisa assay in SKNBE2 cells Abetatotal pIC50 (converted)
Protocol: as §1, §2

[4] = tested on: Aβ42 in the soluble fraction of brain homogenates; assay: In vivo efficacy: brain soluble Aβ42 lowering (ELISA); design: species or system mouse; conditions: p.o., non-transgenic animals
Source text: (§3) To determine whether acute administration of an Aβ42 peptide lowering agent would reduce Aβ peptide levels in vivo, non-transgenic rodents, e.g. mice or rats were used. Animals treated with the Aβ peptide lowering agent were examined and compared to those untreated or treated with vehicle and brain levels of soluble Aβ42 and total Aβ were quantitated by standard techniques, for example, using ELISA. Treatment periods varied from hours (h) to days and were adjusted based on the results of the Aβ42 lowering once a time course of onset of effect could be established.
(§4) A typical protocol for measuring Aβ42 lowering in vivo is shown but it is only one of many variations that could be used to optimize the levels of detectable Aβ. For example, Aβ peptide lowering compounds were formulated in 20% hydroxypropyl β cyclodextrin. The Aβ peptide lowering agents were administered as a single oral dose (p.o.) or a single subcutaneous dose (s.c.) to overnight fasted animals. After a certain time, usually 2 or 4 h (as indicated in Table 7), the animals were sacrificed and A1342 levels were analysed.
(§5) Blood was collected by decapitation and exsanguinations in EDTA-treated collection tubes. […] The left hemisphere was stored at −18° C. for quantitative analysis of test compound levels. […]
(§6) Mouse brains from non-transgenic animals were resuspended in 8 volumes of 0.4% DEA (diethylamine)/50 mM NaCl containing protease inhibitors (Roche-11873580001 or 04693159001) per gram of tissue, e.g. for 0.158 g brain, add 1.264 ml of 0.4% DEA. […] Nine parts of supernatant were neutralized with 1 part 0.5 M Tris-HCl pH 6.8 and used to quantify Aβtotal and Aβ42.
(§7) To quantify the amount of Aβtotal and Aβ42 in the soluble fraction of the brain homogenates, Enzyme-Linked-Immunosorbent-Assays were used. […] Following this incubation and subsequent wash steps the ELISA for Aβ42 quantification was finished by addition of Quanta Blu fluorogenic peroxidase substrate according to the manufacturer's instructions (Pierce Corp., Rockford, Ill.). A reading was performed after 10 to 15 min (excitation 320 nm/emission 420 nm).

[5] = tested on: Aβtotal in the soluble fraction of brain homogenates; assay: In vivo efficacy: brain soluble Aβtotal lowering (ELISA); design: species or system mouse; conditions: p.o., non-transgenic animals
Source text: as §3, §4, §5, §6
as §7, with “nm). […]” for “nm).”

[6] = 10 mpk, 2 h after administration
[7] = 30 mpk, 4 h after administration

Chain of recombinant BACE1 protein (P56817 46-501): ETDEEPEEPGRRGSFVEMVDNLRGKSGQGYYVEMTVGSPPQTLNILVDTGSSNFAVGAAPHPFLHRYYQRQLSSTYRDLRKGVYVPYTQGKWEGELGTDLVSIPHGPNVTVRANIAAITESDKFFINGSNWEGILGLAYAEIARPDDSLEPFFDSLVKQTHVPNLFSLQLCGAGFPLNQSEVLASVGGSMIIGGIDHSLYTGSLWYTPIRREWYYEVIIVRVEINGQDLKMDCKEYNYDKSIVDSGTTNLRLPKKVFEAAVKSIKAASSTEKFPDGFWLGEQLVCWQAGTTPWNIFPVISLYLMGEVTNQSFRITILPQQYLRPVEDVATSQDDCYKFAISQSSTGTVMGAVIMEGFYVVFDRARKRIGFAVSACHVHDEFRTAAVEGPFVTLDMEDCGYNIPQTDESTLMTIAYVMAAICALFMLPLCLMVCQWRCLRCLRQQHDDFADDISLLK

Structure (SMILES)	IC50 [1] [nM]	IC50 [2] [nM]	IC50 [3] [nM]	melting point [°C]	Aβ42 (% Ctrl)_Mean [4, 6] [% Ctrl]	Aβtotal (% Ctrl)_Mean [5, 6] [% Ctrl]	Aβ42 (% Ctrl)_Mean [4, 7] [% Ctrl]	Aβtotal (% Ctrl)_Mean [5, 7] [% Ctrl]
CCC1(c2cc(NC(=O)c3cnc(OC)cn3)ccc2F)N=C(N)COC1C(F)F (racemic) [Compound 3, cis-rac-N-{3-[5-Amino-2-(difluoromethyl)-3-ethyl-3,6-dihydro-2H-1,4-oxazin-3-yl]-4-fluorophenyl}-5-methoxypyrazine-2-carboxamide]	63.1	4.17	3.72					
C[C@]1(c2cc(-c3cncnc3)ccc2F)N=C(N)COC1C(F)F (single isomer, unassigned) [Compound 4, (5R,6R*)-6-(Difluoromethyl)-5-(2-fluoro-5-pyrimidin-5-ylphenyl)-5-methyl-5,6-dihydro-2H-1,4-oxazin-3-amine]	427	129	129					
C[C@]1(c2cccc(-c3cncnc3)c2)N=C(N)COC1C(F)F (single isomer, unassigned) [Compound 5, (5R,6R*)-6-(Difluoromethyl)-5-methyl-5-(3-pyrimidin-5-ylphenyl)-5,6-dihydro-2H-1,4-oxazin-3-amine]	457	117	117					
C[C@]1(c2cc(NC(=O)c3ccc(F)cn3)ccc2F)N=C(N)COC1C(F)F (single isomer, unassigned) [Compound 2, N-{3-[(2R*,3R)-5-Amino-2-(difluoromethyl)-3-methyl-3,6-dihydro-2H-1,4-oxazin-3-yl]-4-fluorophenyl}-5-fluoropyridine-2-carboxamide]	35.5	8.51	8.51	205.7	91	96		
COc1cnc(C(=O)Nc2ccc(F)c([C@@]3(C)N=C(N)COC3C(F)F)c2)cn1 (single isomer, unassigned) [Compound 1, N-{3-[(2R*,3R)-5-Amino-2-(difluoromethyl)-3-methyl-3,6-dihydro-2H-1,4-oxazin-3-yl]-4-fluorophenyl}-5-methoxypyrazine-2-carboxamide]	35.5	4.17	4.27		62	59		

Continued, in another order:

IC50 [1] [nM]	IC50 [2] [nM]	IC50 [3] [nM]	melting point [°C]	Structure (SMILES)	Aβ42 (% Ctrl)_Mean [4, 6] [% Ctrl]	Aβtotal (% Ctrl)_Mean [5, 6] [% Ctrl]	Aβ42 (% Ctrl)_Mean [4, 7] [% Ctrl]	Aβtotal (% Ctrl)_Mean [5, 7] [% Ctrl]
	3.31	3.39		CC1(c2cc(NC(=O)c3ccc(Cl)cn3)ccc2F)N=C(N)COC1C(F)F (single isomer, unassigned) [Compound 6, N-{3-[(2R*3R)-5-Amino-2-(difluoromethyl)-3-methyl-3,6-dihydro-2H-1,4-oxazin-3-yl]-4-fluorophenyl}-5-chloropyridine-2-carboxamide]				
53.7	3.47	3.09	230.9	C[C@]1(c2cc(NC(=O)c3ccc(C#N)cn3)ccc2F)N=C(N)COC1C(F)F (single isomer, unassigned) [Compound 7, N-{3-[(2R*,3R)-5-Amino-2-(difluoromethyl)-3-methyl-3,6-dihydro-2H-1,4-oxazin-3-yl]-4-fluorophenyl}-5-cyanopyridine-2-carboxamide]			53	55

Source: patent US20140343048A1, “6-DIFLUOROMETHYL-5,6-DIHYDRO-2H-[1,4]OXAZIN-3-AMINE DERIVATIVES” (Janssen Pharmacetuica NV, priority 2011, published 2014)
